In ChEMBL document CHEMBL6127017, “Regulation of exercise ability and glycolipid metabolism by synthetic SR9009 analogues as new REV-ERB-α agonists” (Bioorg Med Chem, 2024):
Values belong to the compound of their own block, whether it stands above or below them.

Key:
[1] = tested on: HEK293; assay: Agonist activity at Flag-tagged REV-ERBalpha (unknown origin) expressed in HEK293 cells co-expressing BMAL1 (unknown origin) assessed as relative strength index by measuring ratio of inhibitory rate of BMAL1 incubated for 24 hrs by Dual Glo-Luciferase assay relative to SR9009; format: cell-based; details: Homo sapiens
[2] = Cytotoxicity against MDCK cells; format: toxicity, cell-based, Canis lupus familiaris; details: dog, read-out: TC50 (the source's name)
[3] = Agonist activity at Flag-tagged REV-ERBalpha (unknown origin) expressed in HEK293 cells co-expressing BMAL1 (unknown origin) inhibition of BMAL1 incubated for 24 hrs by Dual Glo-Luciferase assay; format: cell-based; details: Homo sapiens, HEK293, 24 h
[4] = tested on: Mus musculus; assay: Effect on exercise tolerance in high-fat diet-induced obese C57BL/6 mouse assessed as total running time at 200 mg/kg, IG for 7 days (reference value: 2954.50 sec); format: functional; details: time 7 day
[5] = tested on: Mus musculus; assay: Effect on exercise tolerance in high-fat diet-induced obese C57BL/6 mouse assessed as total running distance at 200 mg/kg, IG for 7 days; format: functional; details: time 7 day
[6] = Metabolic stability in human liver microsomes assessed as half life at 1 uM incubated upto 60 mins by LC-MS/MS analysis; format: ADME, Microsome
[7] = Metabolic stability in human liver microsomes assessed as intrinsic clearance at 1 uM incubated upto 60 mins by LC-MS/MS analysis; format: ADME, Microsome; details: read-out: CLH
[8] = Metabolic stability in human liver microsomes assessed as hepatic extraction ratio at 1 uM incubated upto 60 mins by LC-MS/MS analysis; format: ADME, Microsome; details: read-out: ERH
[9] = tested on: Mus musculus; assay: Effect on blood lipid level in high-fat diet-induced obese C57BL/6 mouse assessed as decrease in blood glucose level at 200 mg/kg, IG for 7 days (reference value: 10.77 mmol/L); format: functional; details: time 7 day
[10] = tested on: Mus musculus; assay: Effect on blood lipid level in high-fat diet-induced obese C57BL/6 mouse assessed as total cholesterol level at 200 mg/kg, IG for 7 days (reference value: 4.69 mmol/L); format: functional; details: time 7 day
[11] = tested on: Mus musculus; assay: Effect on blood lipid level in high-fat diet-induced obese C57BL/6 mouse assessed as triglyceride level at 200 mg/kg, IG for 7 days (reference value: 2.07 mmol/L); format: functional; details: time 7 day
[12] = tested on: Mus musculus; assay: Effect on exercise tolerance in normal diet-fed C57BL/6 mouse assessed as total running distance at 200 mg/kg, IG for 3 days (reference value: 2183.20 meter); format: functional; details: time 3 day
[13] = tested on: Mus musculus; assay: Effect on exercise tolerance in normal diet-fed C57BL/6 mouse assessed as total running time at 200 mg/kg, IG for 3 days (reference value: 7002.00 sec); format: functional; details: time 3 day
[14] = Metabolic stability in human liver microsomes assessed as compound remaining at 1 uM measured immediately in presence of NADPH/UDPGA by LC-MS/MS analysis; format: ADME, Microsome; details: read-out: Stability
[15] = Metabolic stability in human liver microsomes assessed as compound remaining at 1 uM measured after 15 mins in presence of NADPH/UDPGA by LC-MS/MS analysis; format: ADME, Microsome; details: read-out: Stability
[16] = Metabolic stability in human liver microsomes assessed as compound remaining at 1 uM measured after 30 mins in presence of NADPH/UDPGA by LC-MS/MS analysis; format: ADME, Microsome; details: read-out: Stability
[17] = Metabolic stability in human liver microsomes assessed as compound remaining at 1 uM measured after 45 mins in presence of NADPH/UDPGA by LC-MS/MS analysis; format: ADME, Microsome; details: read-out: Stability
[18] = Metabolic stability in human liver microsomes assessed as compound remaining at 1 uM measured after 60 mins in presence of NADPH/UDPGA by LC-MS/MS analysis; format: ADME, Microsome; details: read-out: Stability
[19] = Metabolic stability in human liver microsomes assessed as compound remaining at 1 uM measured immediately by LC-MS/MS analysis; format: ADME, Microsome; details: read-out: Stability
[20] = Metabolic stability in human liver microsomes assessed as compound remaining at 1 uM measured after 15 mins by LC-MS/MS analysis; format: ADME, Microsome; details: read-out: Stability
[21] = Metabolic stability in human liver microsomes assessed as compound remaining at 1 uM measured after 30 mins by LC-MS/MS analysis; format: ADME, Microsome; details: read-out: Stability
[22] = Metabolic stability in human liver microsomes assessed as compound remaining at 1 uM measured after 45 mins by LC-MS/MS analysis; format: ADME, Microsome; details: read-out: Stability
[23] = Metabolic stability in human liver microsomes assessed as compound remaining at 1 uM measured after 60 mins by LC-MS/MS analysis; format: ADME, Microsome; details: read-out: Stability

Structure (SMILES): O=C(CC1CC1)N1CCC(CN(Cc2ccc(Cl)cc2)Cc2ccc([N+](=O)[O-])s2)C1 (stereo not drawn)
- Ratio ([1]; filed as agonist): 73.2%

Structure (SMILES): O=C(C1CC1)N1CCC(CN(Cc2cc(Cl)cc(Cl)c2)Cc2ccc([N+](=O)[O-])s2)C1 (stereo not drawn)
- Ratio ([1]; filed as agonist): 64.7%
- CC50 [2]: 12.8 µM

Structure (SMILES): COc1cccc(CN(Cc2ccc([N+](=O)[O-])s2)CC2CCN(C(=O)C3CC3)C2)c1 (stereo not drawn)
- Ratio ([1]; filed as agonist): 64.5%
- CC50 [2]: 15.4 µM

- EC50 [3]: 8.88 µM
Structure (SMILES): O=C(Cc1cccs1)N1CCC(CN(Cc2ccc(Cl)cc2)Cc2ccc([N+](=O)[O-])s2)C1 (stereo not drawn)
- Ratio ([1]; filed as agonist): 121%
- Time [4]: 3726.88 s
- Activity [5]: 686.85 m

- EC50 [3]: 7.15 µM
Structure (SMILES): O=C(c1ccco1)N1CCC(CN(Cc2ccc(Cl)cc2)Cc2ccc([N+](=O)[O-])s2)C1 (stereo not drawn)
- Ratio ([1]; filed as agonist): 126%
- Time [4]: 4165.38 s
- Activity [5]: 836.67 m

Structure (SMILES): CC(F)C(=O)N1CCC(CN(Cc2ccc(Cl)cc2)Cc2ccc([N+](=O)[O-])s2)C1 (stereo not drawn)
- Ratio ([1]; filed as agonist): 85.4%

- EC50 [3]: 4.93 µM
- half-life at 1 µM [6]: 2.3 min
- microsomal CLint at 1 µM [7]: 601 µL/min/mg
- hepatic extraction ratio at 1 h, 1 µM [8]: 0.97
- remaining at 0 min, 1 µM [14]: 100%
- remaining at 0.25 h, 1 µM [15]: 1.1%
- remaining at 0.5 h, 1 µM [16]: 0.23%
- remaining at 0.75 h, 1 µM [17]: 0.16%
- remaining at 1 h, 1 µM [18]: 0.07%
- remaining at 0 min, 1 µM [19]: 100%
- remaining at 0.25 h, 1 µM [20]: 106%
- remaining at 0.5 h, 1 µM [21]: 103%
- remaining at 0.75 h, 1 µM [22]: 105%
- remaining at 1 h, 1 µM [23]: 108%
Structure (SMILES): O=C(C1CC1)N1CCC(CN(Cc2ccc([N+](=O)[O-])s2)Cc2ccc(F)cc2F)C1 (stereo not drawn)
- Ratio ([1]; filed as agonist): 98.2%
- CC50 [2]: 38.5 µM
- Time [4]: 5805 s
- Activity [5]: 1042.52 m
- Activity [9]: 6.79 mmol/L
- Activity [10]: 3.83 mmol/L
- Activity [11]: 1.04 mmol/L
- Activity [12]: 2843.74 m
- Time [13]: 9087.88 s

Structure (SMILES): O=C(NS(=O)(=O)N1CCC(CN(Cc2ccc(Cl)cc2)Cc2ccc([N+](=O)[O-])s2)C1)OCC1CC1 (stereo not drawn)
- Ratio ([1]; filed as agonist): 63%

Structure (SMILES): O=C(C1CC1)N1CCC(CN(Cc2cccc(Cl)c2)Cc2ccc([N+](=O)[O-])s2)C1 (stereo not drawn)
- Ratio ([1]; filed as agonist): 51%
- CC50 [2]: 22.2 µM

Structure (SMILES): COc1ccc(CN(Cc2ccc([N+](=O)[O-])s2)CC2CCN(C(=O)C3CC3)C2)cc1OC (stereo not drawn)
- Ratio ([1]; filed as agonist): 43.4%
- CC50 [2]: 32 µM

- EC50 [3]: 8.29 µM
Structure (SMILES): O=C(c1ccc(Br)o1)N1CCC(CN(Cc2ccc(Cl)cc2)Cc2ccc([N+](=O)[O-])s2)C1 (stereo not drawn)
- Ratio ([1]; filed as agonist): 120%
- Time [4]: 4130 s
- Activity [5]: 797.96 m

Structure (SMILES): O=C(C1CC1)N1CCC(CN(Cc2cccc(Br)c2)Cc2ccc([N+](=O)[O-])s2)C1 (stereo not drawn)
- Ratio ([1]; filed as agonist): 89.8%
- CC50 [2]: 15.4 µM

Structure (SMILES): O=C(C1CC1)N1CCC(CN(Cc2ccc([N+](=O)[O-])s2)Cc2c(F)cccc2Cl)C1 (stereo not drawn)
- Ratio [1]: 30.2%

- EC50 [3]: 8.57 µM
- half-life at 1 µM [6]: 2.23 min
- microsomal CLint at 1 µM [7]: 622 µL/min/mg
- hepatic extraction ratio at 1 h, 1 µM [8]: 0.97
- remaining at 0 min, 1 µM [14]: 100%
- remaining at 0.25 h, 1 µM [15]: 0.94%
- remaining at 0.5 h, 1 µM [16]: 0.04%
- remaining at 0.75 h, 1 µM [17]: 0.08%
- remaining at 1 h, 1 µM [18]: 0.06%
- remaining at 0 min, 1 µM [19]: 100%
- remaining at 0.25 h, 1 µM [20]: 85.6%
- remaining at 0.5 h, 1 µM [21]: 98.5%
- remaining at 0.75 h, 1 µM [22]: 85.6%
- remaining at 1 h, 1 µM [23]: 103%
Structure (SMILES): CCOC(=O)N1CCC(CN(Cc2ccc(Cl)cc2)Cc2ccc([N+](=O)[O-])s2)C1 (stereo not drawn) [SR9009]
- CC50 [2]: 38.5 µM
- Time [4]: 5428.38 s
- Activity [5]: 1177.69 m
- Activity [9]: 9.46 mmol/L
- Activity [10]: 4.03 mmol/L
- Activity [11]: 1.07 mmol/L
- Activity [12]: 3121.42 m
- Time [13]: 9908.5 s

- EC50 [3]: 5.99 µM
- half-life at 1 µM [6]: 3.37 min
- microsomal CLint at 1 µM [7]: 411 µL/min/mg
- hepatic extraction ratio at 1 h, 1 µM [8]: 0.96
- remaining at 0 min, 1 µM [14]: 100%
- remaining at 0.25 h, 1 µM [15]: 4.6%
- remaining at 0.5 h, 1 µM [16]: 0.91%
- remaining at 0.75 h, 1 µM [17]: 0.3%
- remaining at 1 h, 1 µM [18]: 0.15%
- remaining at 0 min, 1 µM [19]: 100%
- remaining at 0.25 h, 1 µM [20]: 93.2%
- remaining at 0.5 h, 1 µM [21]: 108%
- remaining at 0.75 h, 1 µM [22]: 93.3%
- remaining at 1 h, 1 µM [23]: 90.1%
Structure (SMILES): O=C(C1CC1)N1CCC(CN(Cc2ccc(Cl)c(Cl)c2)Cc2ccc([N+](=O)[O-])s2)C1 (stereo not drawn)
- Ratio ([1]; filed as agonist): 84.8%
- CC50 [2]: 10.7 µM
- Time [4]: 5011.38 s
- Activity [5]: 1061.4 m
- Activity [9]: 6.82 mmol/L
- Activity [10]: 4.5 mmol/L
- Activity [11]: 1.12 mmol/L
- Activity [12]: 3115.39 m
- Time [13]: 10034.25 s

Structure (SMILES): C=CC(=O)N1CCC(CN(Cc2ccc(F)cc2)Cc2ccc([N+](=O)[O-])s2)C1 (stereo not drawn)
- Ratio ([1]; filed as agonist): 61.2%

Structure (SMILES): O=C(NS(=O)(=O)N1CCC(CN(Cc2ccc(Cl)cc2)Cc2ccc([N+](=O)[O-])s2)C1)OCC1CCCC1 (stereo not drawn)
- Ratio [1]: 34.3%

Structure (SMILES): CC1CCC(N(Cc2ccc([N+](=O)[O-])s2)CC2CCN(C(=O)OC(C)(C)C)C2)CC1 (stereo not drawn)
- Ratio [1]: 26.8%

- EC50 [3]: 8.65 µM
Structure (SMILES): C=CC(=O)N1CCC(CN(Cc2ccc(Cl)cc2)Cc2ccc([N+](=O)[O-])s2)C1 (stereo not drawn)
- Ratio ([1]; filed as agonist): 125%
- Time [4]: 4516.75 s
- Activity [5]: 910.9 m

- EC50 [3]: 9.21 µM
Structure (SMILES): O=C(C1CCC1)N1CCC(CN(Cc2ccc(Cl)cc2)Cc2ccc([N+](=O)[O-])s2)C1 (stereo not drawn)
- Ratio ([1]; filed as agonist): 116%
- Time [4]: 3159 s
- Activity [5]: 572.8 m

Structure (SMILES): O=C(C1CC1)N1CCC(CN(Cc2ccc(Cl)cc2)Cc2ccc([N+](=O)[O-])s2)C1 (stereo not drawn)
- Ratio ([1]; filed as agonist): 55%

Structure (SMILES): COc1ccccc1CN(Cc1ccc([N+](=O)[O-])s1)CC1CCN(C(=O)C2CC2)C1 (stereo not drawn)
- Ratio [1]: 5.77%
- CC50 [2]: 38.5 µM

- EC50 [3]: 8.31 µM
Structure (SMILES): O=C(C1CC1)N1CCC(CN(Cc2ccc([N+](=O)[O-])s2)Cc2ccc(F)cc2Cl)C1 (stereo not drawn)
- Ratio ([1]; filed as agonist): 89.4%
- CC50 [2]: 38.5 µM

Structure (SMILES): O=C(C1CC1)N1CCC(CN(Cc2ccc3c(c2)OCO3)Cc2ccc([N+](=O)[O-])s2)C1 (stereo not drawn)
- Ratio ([1]; filed as agonist): 70.7%
- CC50 [2]: 15.4 µM
